Assay results: the Deep4Chem optical property database
Blank lines part the entries; values can stand above or below the compound they belong to.

Experiment: solvent given as SMILES

SMILES: CC(=O)O[B-]1(OC(C)=O)OC(/C=C/c2ccccc2)=CC(/C=C/c2ccccc2)=[O+]1
- absorption maximum (in C1CCOC1): 422 nm
- absorption maximum (in CC#N): 422 nm
- absorption maximum (in CC(C)=O): 422 nm
- absorption maximum (in CS(C)=O): 428 nm
- absorption maximum (in Cc1ccccc1): 424 nm
- absorption maximum (in ClC(Cl)Cl): 426 nm
- absorption maximum (in ClCCl): 424 nm

SMILES: Fc1nc(F)c(F)c(C#Cc2nccnc2C#Cc2c(F)c(F)nc(F)c2F)c1F
- absorption maximum (in CC#N): 305 nm

SMILES: CC(C)(C)c1ccc2oc3nc4oc5ccc(-n6c7ccccc7c(=O)c7ccccc76)cc5c4cc3c2c1
- absorption maximum (in ClC(Cl)Cl): 396 nm

SMILES: CCC1=C(C)C2=Cc3c4ccccc4c4n3[B-](c3cc[n+](C)cc3)(Oc3ccccc3-4)[N+]2=C1C=Cc1ccc(OC)cc1 (centres undefined)
- absorption maximum (in CO): 695 nm
- absorption maximum (in CS(C)=O): 703 nm

SMILES: CC(=O)Nc1ccc(O)cc1
- absorption maximum (in C1CCOC1): 293 nm
- absorption maximum (in CC#N): 290 nm
- absorption maximum (in CCCCO): 290 nm
- absorption maximum (in CO): 290 nm
- absorption maximum (in CS(C)=O): 293 nm

SMILES: CCn1c2ccccc2c2cc(-c3cc(-c4ccc5c(c4)c4ccccc4n5CC)nc(S(C)(=O)=O)n3)ccc21
- absorption maximum (in C1CCOC1): 381 nm
- absorption maximum (in CCOC(C)=O): 378 nm
- absorption maximum (in CN(C)C=O): 384 nm
- absorption maximum (in Cc1ccccc1): 382 nm
- absorption maximum (in ClCCl): 384 nm

SMILES: CC(C)[Si](C#Cc1cc2c(=S)c3cc(C#C[Si](C(C)C)(C(C)C)C(C)C)cc4c(=S)c5cc(C#C[Si](C(C)C)(C(C)C)C(C)C)cc6c(=S)c(c1)c2n(c34)c65)(C(C)C)C(C)C
- absorption maximum (in ClCCl): 577 nm

SMILES: C[Si]1(C)O[Si](C)(C)c2cc3c(-c4ccccc4)c4cc(Cl)ccc4nc3cc21
- absorption maximum (in ClCCl): 376 nm

SMILES: Cc1ccc(C2=C3C=CC(C#Cc4ccccc4)=[N+]3[B-](F)(F)n3c(C#Cc4ccccc4)ccc32)cc1
- absorption maximum (in C1CCCCC1): 615 nm
- absorption maximum (in C1CCOC1): 610 nm
- absorption maximum (in C1COCCO1): 612 nm
- absorption maximum (in CCOC(C)=O): 607 nm
- absorption maximum (in CO): 605 nm
- absorption maximum (in Cc1ccccc1): 614 nm
- absorption maximum (in ClC(Cl)Cl): 614 nm
- absorption maximum (in ClCCl): 614 nm

SMILES: CCCCN1C(=O)C(=CC=C2N(CCCC)c3ccccc3N2CCCC)C(=O)N(CCCC)C1=S
- absorption maximum (in CCCCCC): 470 nm
- absorption maximum (in CCO): 424 nm
- absorption maximum (in CN(C)C=O): 431 nm
- absorption maximum (in Cc1ccccc1): 468 nm
- absorption maximum (in ClC(Cl)Cl): 461 nm
- absorption maximum (in ClCCl): 456 nm

SMILES: Cc1nc2c(ccc3ccc(O)cc32)oc1=O
- absorption maximum (in c1ccccc1): 370 nm

SMILES: O=c1oc2ccc(Br)cc2cc1-c1cc2cc(Br)ccc2o1
- absorption maximum (in CC#N): 370 nm
- absorption maximum (in CCOC(C)=O): 371 nm
- absorption maximum (in CS(C)=O): 374 nm
- absorption maximum (in Cc1ccccc1): 377 nm
- absorption maximum (in O): 331 nm

Second part, the compound after the results:

- absorption maximum (in ClCCl): 341 nm
SMILES: COc1ccc(-c2cnc3cccc(-c4ccccc4)n23)cc1

- absorption maximum (in ClCCl): 712 nm
SMILES: F[B-]1(F)n2c(c3ccccc3c2-c2ccccc2)N=C2c3ccccc3C(c3ccccc3)=[N+]21

- absorption maximum (in CC#N): 357 nm
- absorption maximum (in ClCCl): 360 nm
SMILES: Cc1cc(O)c(C(=O)/C=C/c2ccc(Cl)cc2)c(=O)o1

- absorption maximum (in ClCCl): 377 nm
SMILES: c1ccc(-c2nc(-c3ccc(N4c5ccccc5Sc5ccccc54)cc3)nn2-c2ccc(N3c4ccccc4Sc4ccccc43)cc2)nc1

- absorption maximum (in C1CCOC1): 446 nm
SMILES: CN(C)c1ccc(C2=C(c3ccccc3)c3sc4ccccc4[n+]3[B-](F)(F)O2)cc1

- absorption maximum (in CC#N): 701 nm
SMILES: CC(=O)OC[C@H]1O[C@@H](OCC#Cc2ccc(C3=C4C(C)=CC(/C=C/c5ccc(N(C)C)cc5)=[N+]4[B-](F)(F)n4c(/C=C/c5ccc(N(C)C)cc5)cc(C)c43)cc2)[C@H](OC(C)=O)C(OC(C)=O)[C@@H]1OC(C)=O (some centres undefined)

- absorption maximum (in CC#N): 290 nm
- absorption maximum (in CO): 291 nm
- absorption maximum (in O): 290 nm
SMILES: CCOC(=O)COc1ccc(C(c2c(C)[nH]c3ccccc23)c2c(C)[nH]c3ccccc23)cc1OC

- absorption maximum (in c1cc(-c2cccc(-n3c4ccccc4c4ccccc43)c2)cc(-n2c3ccccc3c3ccccc32)c1): 405.11 nm
SMILES: c1ccc(-c2nc(-c3ccccc3)nc(-c3ccc(-c4ccc5c(c4)C4(c6ccccc6-c6ccccc64)c4cc(-c6ccc(-c7nc(-c8ccccc8)nc(-c8ccccc8)n7)cc6)ccc4N5c4ccccc4)cc3)n2)cc1
